System: digoxin antibody
Format: binding
Description: Measurement of digoxin-like immunoreactivity: Radioimmunoassay was performed with digoxin RIA kit obtained from Amersham International (Amersham, Buckinghamshire, England). Assay conditions were as recommended by the manufacturer.
Digoxin radioimmunoassay was performed using commercially available kit. The concentration of the partially purified lens DLC was determined from its ability to inhibit [^3H]-ouabain binding assuming identical affinity to the ouabain receptor as ouabain and MW of 372.

Structure (SMILES) | Cross reactivity | Digoxin-like immunoreactive material
C[C@]12CC[C@H](O)C[C@H]1CC[C@@H]1[C@@H]2CC[C@]2(C)[C@@H](c3ccc(=O)oc3)CC[C@]12O [Bufalin] | 0.045% | 4.53 ng/mL
C[C@H]1O[C@@H](O[C@H]2[C@@H](O)C[C@H](O[C@H]3[C@@H](O)C[C@H](O[C@H]4CC[C@@]5(C)[C@H](CC[C@@H]6[C@@H]5C[C@@H](O)[C@]5(C)[C@@H](C7=CC(=O)OC7)CC[C@]65O)C4)O[C@@H]3C)O[C@@H]2C)C[C@H](O)[C@@H]1O [Digoxin] | 100% | 10,000 ng/ml
C[C@@H]1O[C@@H](O[C@H]2C[C@@H](O)[C@]3(CO)[C@H]4[C@H](O)C[C@]5(C)[C@@H](C6=CC(=O)OC6)CC[C@]5(O)[C@@H]4CC[C@]3(O)C2)[C@H](O)[C@H](O)[C@H]1O [Ouabain] | 0.012% | 1.21 ng/mL
